# Data as given in article PMC4601051, “Discovery of Indoline-2-carboxamide Derivatives as a New Class of Brain-Penetrant Inhibitors of Trypanosoma brucei” (Journal of Medicinal Chemistry, 2015).
# System: not listed separately
# Assay: in vitro
# Details: human
# Description: Proliferation assays using bloodstream form T. brucei brucei and human MRC-5 fibroblasts were conducted using a modification of the cell viability assay as previously reported.[27],[39]
# MRC-5 cells (2000 cells per well) were seeded in 200 μL of DMEM, 10% FCS, and allowed to adhere overnight. One microliter of test compound was added to each well on the day of assay initiation.
# The final DMSO level was 0.5% in all cases.
row,Compound,EC50 at 69 h [nM]
1,CNC(=O)C1Cc2ccccc2N1C(=O)Cc1cccc2ccccc12 (centres unmarked) [Compound 39],> 50000

# Same assay, conditions: human, MRC-5 fibroblasts
row,Compound,EC50 at 69 h [nM]
1,CCNC(=O)C1Cc2ccccc2N1C(=O)COc1cccc(C)c1 (centres unmarked) [Compound 22],> 50000
2,CNC(=O)C1Cc2ccccc2N1C(=O)Cc1ccc(F)cc1 (centres unmarked) [Compound 43],> 50000
3,CNC(=O)C1Cc2ccccc2N1C(=O)COc1ccc(Cl)c(Cl)c1 (centres unmarked) [Compound 30],> 50000
4,CC(C)Oc1ccc(C(=O)N2c3ccccc3CC2C(N)=O)cc1 (centres unmarked) [Compound 25],> 50000
5,CNC(=O)C1Cc2cc(-c3ccncc3)ccc2N1C(=O)COc1ccc(F)cc1 (centres unmarked) [Compound 62],> 50000
6,CNC(=O)C1Cc2c(cc(F)c(F)c2F)N1C(=O)COc1ccc(Cl)cc1 (centres unmarked) [Compound 59],> 50000
7,CNC(=O)C1Cc2ccccc2N1C(=O)COc1ccc(C)cc1 (centres unmarked) [Compound 34],> 50000
8,[2H]c1c([2H])c([2H])c(OCC(=O)N2c3ccccc3C[C@@H]2C(=O)NC)c([2H])c1[2H] [Compound 38],> 50000
9,CNC(=O)C1Cc2ccccc2N1C(=O)COc1cccc(OC)c1 (centres unmarked) [Compound 19],> 50000
10,CCCCNC(=O)C1Cc2ccccc2N1C(=O)COc1ccc(Cl)cc1 (centres unmarked) [Compound 50],> 50000
11,CCNC(=O)C1Cc2ccccc2N1C(=O)CCC1CCCC1 (centres unmarked) [Compound 23],> 50000
12,CNC(=O)C1Cc2ccccc2N1C(=O)COc1ccc(Cl)c(F)c1 (centres unmarked) [Compound 29],> 50000
13,CNC(=O)C1Cc2ccccc2N1C(=O)Cc1ccccc1 (centres unmarked) [Compound 21],> 15000
14,CNC(=O)[C@H]1Cc2ccccc2N1C(=O)Cc1ccc(Cl)c(F)c1 [Compound 45],> 50000
15,CNC(=O)C1Cc2ccccc2CN1C(=O)COc1ccc(F)cc1 (centres unmarked) [Compound 66],> 50000
16,CNC(=O)C1Cc2ccccc2N1C(=O)Cc1ccc(F)c(F)c1 (centres unmarked) [Compound 46],> 50000
17,CNC(=O)C1Cc2cc(F)c(F)cc2N1C(=O)COc1ccc(F)cc1 (centres unmarked) [Compound 57],> 50000
18,CNC(=O)C1Cc2ccccc2N1C(=O)Cc1ccc(F)cc1F (centres unmarked) [Compound 44],> 50000

# System: not listed separately
# Assay: Microsomal intrinsic clearance (Clint), mouse
# Assay type: in vitro ADME
# Details: mouse liver microsomes, 0.5 μM compound
# Description: (§1) Each test compound (0.5 μM) was incubated with pooled female CDI mouse liver microsomes, pooled male Sprague–Dawley rat microsomes, or pooled mixed gender human liver microsomes (Tebu-Bio, UK; 0.5 mg/mL 50 mM potassium phosphate buffer, pH 7.4) and the reaction started with addition of excess NADPH (8 mg/mL, 50 mM potassium phosphate buffer, pH 7.4). Immediately, at time zero, then at 3, 6, 9, 15, and 30 min, an aliquot (50 μL) of the incubation mixture was removed and mixed with acetonitrile (100 μL) to stop the reaction. Internal standard was added to all samples, and the samples were centrifuged at 1825g for 10 min to sediment precipitated protein. The plates were then sealed prior to UPLC/MS/MS analysis using a Quattro Premier XE (Waters Corporation, USA).
# (§2) XLfit (IDBS, UK) was used to calculate the exponential decay and consequently the rate constant (k) from the ratio of peak area of test compound to internal standard at each time point.
row,Compound,mouse microsomal intrinsic clearance [mL min^–1 g^–1]
1,CNC(=O)C1Cc2ccccc2N1C(=O)Cc1cccc2ccccc12 (centres unmarked) [Compound 39],28
2,CNC(=O)C1Cc2ccccc2N1C(=O)Cc1ccc(F)cc1 (centres unmarked) [Compound 43],0.8
3,CNC(=O)C1Cc2ccccc2N1C(=O)COc1ccc(Cl)c(Cl)c1 (centres unmarked) [Compound 30],9.1
4,CNC(=O)C1Cc2c(cc(F)c(F)c2F)N1C(=O)COc1ccc(Cl)cc1 (centres unmarked) [Compound 59],3.7
5,CNC(=O)C1Cc2ccccc2N1C(=O)COc1ccc(C)cc1 (centres unmarked) [Compound 34],6.5
6,CCCCNC(=O)C1Cc2ccccc2N1C(=O)COc1ccc(Cl)cc1 (centres unmarked) [Compound 50],27
7,CNC(=O)C1Cc2ccccc2N1C(=O)COc1ccc(Cl)c(F)c1 (centres unmarked) [Compound 29],4.4
8,CNC(=O)[C@H]1Cc2ccccc2N1C(=O)Cc1ccc(Cl)c(F)c1 [Compound 45],8.4
9,CNC(=O)C1Cc2ccccc2N1C(=O)Cc1ccc(F)c(F)c1 (centres unmarked) [Compound 46],1.9
10,CNC(=O)C1Cc2cc(F)c(F)cc2N1C(=O)COc1ccc(F)cc1 (centres unmarked) [Compound 57],2.0
11,CNC(=O)C1Cc2ccccc2N1C(=O)Cc1ccc(F)cc1F (centres unmarked) [Compound 44],0.5

# System: bloodstream form T. brucei brucei
# Assay: T. b. brucei whole cell parasite (trypanosome growth) assay
# Assay type: cell-based, Trypanosoma brucei brucei
# Details: not given
# Description: This was conducted as previously described.[27] Cell culture plates were stamped with 1 μL of an appropriate stock concentration of test compound, followed by addition of 200 μL of trypanosome culture (HMI9-T, 10% FCS) to each well at a density of 2000 cells per well (except column 12 receiving media only). […] Potency was carried out using 10-point dose–response curves.
row,Compound,T. b. brucei potency in words
1,CNC(=O)C1Cc2ccccc2N1C(=O)Cc1cccc2ccccc12 (centres unmarked) [Compound 39],complete loss of potency

# Same assay, conditions: T. b. brucei EC50, compared to 1 (parent)
row,Compound,loss in potency [fold]
1,CNC(=O)C1Cc2ccccc2N1C(=O)COc1ccc(Cl)c(Cl)c1 (centres unmarked) [Compound 30],15
2,CNC(=O)C1Cc2cc(-c3ccncc3)ccc2N1C(=O)COc1ccc(F)cc1 (centres unmarked) [Compound 62],~10
3,CCCCNC(=O)C1Cc2ccccc2N1C(=O)COc1ccc(Cl)cc1 (centres unmarked) [Compound 50],~700

# Same assay, conditions: Trypanosoma brucei, mean of two or more determinations; 69 h + 4 h resazurin; read-out: T. b. brucei EC50
row,Compound,EC50 [nM]
1,CCNC(=O)C1Cc2ccccc2N1C(=O)COc1cccc(C)c1 (centres unmarked) [Compound 22],650
2,CNC(=O)C1Cc2ccccc2N1C(=O)Cc1ccc(F)cc1 (centres unmarked) [Compound 43],100
3,CNC(=O)C1Cc2ccccc2N1C(=O)COc1ccc(Cl)c(Cl)c1 (centres unmarked) [Compound 30],400
4,CC(C)Oc1ccc(C(=O)N2c3ccccc3CC2C(N)=O)cc1 (centres unmarked) [Compound 25],> 50000
5,CNC(=O)C1Cc2cc(-c3ccncc3)ccc2N1C(=O)COc1ccc(F)cc1 (centres unmarked) [Compound 62],440
6,CNC(=O)C1Cc2c(cc(F)c(F)c2F)N1C(=O)COc1ccc(Cl)cc1 (centres unmarked) [Compound 59],70
7,CNC(=O)C1Cc2ccccc2N1C(=O)COc1ccc(C)cc1 (centres unmarked) [Compound 34],30
8,[2H]c1c([2H])c([2H])c(OCC(=O)N2c3ccccc3C[C@@H]2C(=O)NC)c([2H])c1[2H] [Compound 38],50
9,CNC(=O)C1Cc2ccccc2N1C(=O)COc1cccc(OC)c1 (centres unmarked) [Compound 19],450
10,CCCCNC(=O)C1Cc2ccccc2N1C(=O)COc1ccc(Cl)cc1 (centres unmarked) [Compound 50],19000
11,CCNC(=O)C1Cc2ccccc2N1C(=O)CCC1CCCC1 (centres unmarked) [Compound 23],990
12,CNC(=O)C1Cc2ccccc2N1C(=O)COc1ccc(Cl)c(F)c1 (centres unmarked) [Compound 29],30
13,CNC(=O)C1Cc2ccccc2N1C(=O)Cc1ccccc1 (centres unmarked) [Compound 21],220
14,CNC(=O)[C@H]1Cc2ccccc2N1C(=O)Cc1ccc(Cl)c(F)c1 [Compound 45],80
15,CNC(=O)C1Cc2ccccc2CN1C(=O)COc1ccc(F)cc1 (centres unmarked) [Compound 66],37000
16,CNC(=O)C1Cc2ccccc2N1C(=O)Cc1ccc(F)c(F)c1 (centres unmarked) [Compound 46],110
17,CNC(=O)C1Cc2cc(F)c(F)cc2N1C(=O)COc1ccc(F)cc1 (centres unmarked) [Compound 57],90
18,CNC(=O)C1Cc2ccccc2N1C(=O)Cc1ccc(F)cc1F (centres unmarked) [Compound 44],2300

# Same assay, conditions: Trypanosoma brucei, read-out: T. b. brucei EC50, mean of two or more determinations; 69 h + 4 h resazurin
row,Compound,EC50 [nM]
1,CNC(=O)C1Cc2ccccc2N1C(=O)Cc1cccc2ccccc12 (centres unmarked) [Compound 39],50000

# Same assay, conditions: mean of two or more determinations; 69 h + 4 h resazurin; read-out: T. b. brucei EC50
row,Compound,EC50 [nM]
1,CNC(=O)C1Cc2ccccc2N1C(=O)Cc1ccc(F)cc1 (centres unmarked) [Compound 43],110

# System: not listed separately
# Assay: Microsomal intrinsic clearance (Clint), human
# Assay type: in vitro ADME
# Details: human liver microsomes, 0.5 μM compound
# Description: as §1, §2
row,Compound,"microsomal intrinsic clearance, human [mL min^–1 g^–1]"
1,CNC(=O)C1Cc2c(cc(F)c(F)c2F)N1C(=O)COc1ccc(Cl)cc1 (centres unmarked) [Compound 59],4.3
2,CNC(=O)C1Cc2ccccc2N1C(=O)COc1ccc(C)cc1 (centres unmarked) [Compound 34],2.4
3,CNC(=O)C1Cc2ccccc2N1C(=O)COc1ccc(Cl)c(F)c1 (centres unmarked) [Compound 29],3.3
4,CNC(=O)C1Cc2cc(F)c(F)cc2N1C(=O)COc1ccc(F)cc1 (centres unmarked) [Compound 57],1.9

# System: not listed separately
# Assay: Microsomal intrinsic clearance (Clint), rat
# Assay type: in vitro ADME
# Details: rat liver microsomes, 0.5 μM compound
# Description: as §1, §2
row,Compound,"microsomal intrinsic clearance, rat [mL min^–1 g^–1]"
1,CNC(=O)C1Cc2c(cc(F)c(F)c2F)N1C(=O)COc1ccc(Cl)cc1 (centres unmarked) [Compound 59],6.7
2,CNC(=O)C1Cc2ccccc2N1C(=O)COc1ccc(C)cc1 (centres unmarked) [Compound 34],47
3,CNC(=O)C1Cc2ccccc2N1C(=O)COc1ccc(Cl)c(F)c1 (centres unmarked) [Compound 29],13.5
4,CNC(=O)C1Cc2cc(F)c(F)cc2N1C(=O)COc1ccc(F)cc1 (centres unmarked) [Compound 57],2.8
